{"source": "patent US5866617A", "about": "“Formulations and methods of use 2,2'-dithio-bis-esthane sulfonate” (BioNumerik Pharmaceuticals, Inc., priority 1997, dated 1999)", "key": {"[1]": {"conditions": "rat, in vivo, iv, 180 min; cited from earlier work"}, "rats": {"system": "rats", "conditions": "single i.p. dose of 3 mg cisplatin/kg, cited from earlier work"}, "[2]": {"conditions": "in vivo; cited from earlier work"}, "[3]": {"conditions": "human, in vivo, cited from earlier work"}, "[4]": {"experiment": "Stability of 2,2'-dithio-bis-ethane sulfonate in acidic and basic aqueous media (proton NMR)", "type": "physicochemical", "protocol": "The stability of 2,2'-dithio-bis-ethane sulfonate at room temperature was determined at pH ranges of 1.5 to 9.0.\nThe stability of 2,2'-dithio-bis-ethane sulfonate in acidic and basic aqueous media can be studied as described in this example. In a typical experiment, 50 mg of 2,2'-dithio-bis-ethane sulfonate (as produced by using the above described method) was dissolved in one ml of water and the pH of the solution adjusted to 1.5, 2.0, 3.0, 4.0, 5.0 and 6.0 by adding 1N hydrochloric acid in water or the pH adjusted to 8.0, 9.0, 10.0 or 11.0 by adding 1N sodium hydroxide in water. The reaction mixture was then stirred for 24 hours at room temperature, the water was removed at reduced pressure, dissolved in spectral grade D2 O, and the proton NMR spectrum was recorded.\nThe stability of 2,2'-dithio-bis-ethane sulfonate at pH 1.5 is further studied by heating the reaction mixture to 100 degrees Celsius for 10 minutes."}, "[5]": {"experiment": "Solubility in sterile water and 0.9% sodium chloride solution, pH 7.15 (tyndall effect)", "type": "physicochemical", "conditions": "water and 0.9% nacl, read-out: concentrations at which soluble", "protocol": "1 ml of 0.9% sodium chloride solution was then distributed in each of a second set of six sterilized 10 ml vials. The 0.9% sodium chloride solution was obtained by dissolving 9 mg of USP grade sodium chloride in sterile HPLC grade water using an agitator."}, "[6]": {"experiment": "Body weight change in tumor bearing Fischer rats", "protocol": "FIG. 4. Weight Change in Tumor Bearing Fischer Rats Treated with Parenteral Cisplatin (6 mg/kg or 9 mg/kg) and 2,2'-Dithio-Bis-Ethane Sulfonate (BNP7787 @ 1,000 mg/kg).\nThe antitumor activity and toxicity, as measured by weight changes estimated by changes in tumor volumes and animal weights, respectively, of escalating doses of parenterally (intravenously) administered cisplatin (6 mg/kg and 9 mg/kg) with or without substantially contemporaneously intravenously administered BNP7787 (1000 mg/kg) was investigated in Fischer rats bearing subcutaneous established (~3.0 g) WARD colon cancer."}, "physchem": {"experiment": "physchem", "conditions": "water", "method": "In this example, 10 grams of the disodium salt of 2,2'-dithio-bis-ethane sulfonate was dissolved in 50 ml of sterile HPLC grade water and the pH of the solution was readjusted to a pH of 7.0 using 1N hydrochloric acid. The resulting solution was then passed through a 0.2 micron syringe filter into an autoclaved round bottom flask (250 ml). This sterile solution was then freeze dried (lyophilized) to a white crystalline powder. The lyophilized powder was then used for the following solubility studies.\n1 ml of sterile HPLC grade water was distributed in each of ten sterilized 10 ml vials. […] Each vial was first observed at room temperature for a period of approximately 15 minutes, and then heated to a temperature of 37° C. for a period of at least 15 minutes."}, "Fischer rats [7]": {"system": "Fischer rats", "experiment": "Protection against cisplatin induced nephrotoxicity in Fischer rats (day 5 serum creatinine and BUN)", "type": "in vivo", "protocol": "FIG. 1. Serum Creatinine Values on Day 5 Post Treatment with i.v. Cisplatin (6 mg/kg) With or Without Increasing Doses of i.v. 2,2'-Dithio-Bis-Ethane Sulfonate (BNP7787).\nFIG. 2. Serum BUN (Blood Urea Nitrogen) Values on Day 5 Post Treatment with i.v. Cisplatin (6 mg/kg) With or Without Increasing Doses of i.v. 2,2'-Dithio-Bis-Ethane Sulfonate (BNP7787).\n(§1) The data from these studies are shown below in FIGS. 1 and 2. Under Good Laboratory Practice (GLP) conditions, Fischer rats (10 rats per treatment group) were treated with or without escalating doses of BNP7787 (up to 1000 mg/kg) administered by i.v. injection with a nephrotoxic dose of cisplatin (6 mg/kg). Serum BUN (FIG. 2) and Creatinine (FIG. 1) values were measured on day 5 and the animals were weighed daily. […] The mean day 5 WBC levels of rats treated with higher doses of 2,2'-dithio-bis-ethane sulfonate, namely the 333 mg/kg and 1,000 mg/kg treatment groups, are approximately 6,800 and 6,200, respectively. These mean WBC values are within 15% of the WBC values for untreated controls. The day 5 mean WBC counts for the cisplatin only and low dose (37 mg/kg) 2,2'-dithio-bis-ethane sulfonate treatment groups are approximately 4,800 and 4,500, respectively and represent a 32% to 36% reduction in the day 5 mean WBC from the untreated control group. The Fischer rat model is highly correlated with cisplatin induced nephrotoxicity in humans and is thus an excellent animal model to support the utility of 2,2'-dithio-bis-ethane sulfonate to protect against cisplatin induced nephrotoxicity in humans."}, "Fischer rats [8]": {"system": "Fischer rats", "experiment": "Protection against cisplatin induced myelosuppression in Fischer rats (day 5 WBC)", "type": "in vivo", "conditions": "for deviation of mean WBC from untreated controls: day 5", "protocol": "FIG. 3. Total WBC Values on Day 5 Post Treatment with i.v. Cisplatin (6 mg/kg) With or Without Increasing Doses of i.v. 2,2'-Dithio-Bis-Ethane Sulfonate (BNP7787).\nas §1"}, "WARD colon cancer": {"system": "WARD colon cancer", "experiment": "Antitumor activity in Fischer rats bearing subcutaneous WARD colon cancer", "type": "in vivo", "method": "Antitumor Response of Tumor Bearing Fischer Rats Treated with Parenteral Cisplatin (6 mg/kg or 9 mg/kg) and 2,2'-Dithio-Bis-Ethane Sulfonate (BNP7787 @ 1000 mg/kg)."}, "cancer patients": {"system": "cancer patients", "conditions": "cited from earlier work"}, "[9]": {"conditions": "BNP7787 1000 mg/kg i.v. with cisplatin 6 mg/kg and 9 mg/kg"}, "[10]": {"conditions": "BNP7787 37 mg/kg with cisplatin 6 mg/kg"}, "[11]": {"conditions": "BNP7787 333 mg/kg with cisplatin 6 mg/kg"}, "[12]": {"conditions": "BNP7787 1,000 mg/kg with cisplatin 6 mg/kg"}}}
{"smiles": "O=S(=O)([O-])CCS.[Na+]", "values": [{"measurement": "administered dose recovered in the urine", "setting": "[1]", "result": "over 80%"}, {"measurement": "protection of kidneys from renal damage", "setting": "rats; low doses of mesna", "result": "only partially protected"}, {"measurement": "prevention of renal damage", "setting": "rats; per os mesna", "result": "complete prevention of renal damage"}, {"measurement": "administered mesna dose found in the urine in the form of mesna (reactive thiol)", "setting": "[2]", "result": "approximately 45%"}, {"measurement": "dose appearing as thiol groups in the urine", "setting": "[3]; iv, 20 mg/kg", "result": "about 48%"}, {"measurement": "dose excreted in the urine as reactive thiol groups", "setting": "[3]; po", "result": "approximately 52%"}, {"measurement": "minimum concentration presumed to still be protective", "setting": "[3]", "result": 100, "unit": "µg/mL"}]}
{"smiles": "O=S(=O)([O-])CCSSCCS(=O)(=O)[O-].[Na+].[Na+]", "values": [{"measurement": "change in proton spectrum on heating", "setting": "[4]; pH 1.5, 100 degrees Celsius, 10 minutes", "result": "No change in the proton spectrum"}, {"measurement": "pH range in which stable", "setting": "[4]; room temperature, 24 hours, listed as 2,2'-dithio-bis-ethane sulfonate", "result": "1.0-11.0"}, {"measurement": "solubility", "setting": "[5]", "result": "100 to 320", "unit": "mg/mL"}, {"measurement": "mean weights compared with all other treatment groups", "setting": "[6]; [9]", "result": "greater mean weights than all other treatment groups"}, {"measurement": "protection against renal damage as measured by weight loss", "setting": "[6]; [9]", "result": "clearly protective against renal damage"}, {"measurement": "solubility", "setting": "physchem", "result": "10.5 to 102", "unit": "mg/mL"}, {"measurement": "nephrotoxicity (plasma BUN and creatinine levels and histopathology) relative to cisplatin only", "setting": "Fischer rats [7]; BNP7787 37 mg/kg with cisplatin 6 mg/kg i.v.", "result": "slight increase in nephrotoxicity"}, {"measurement": "renal protection (day 5 creatinine and BUN)", "setting": "Fischer rats [7]; BNP7787 333 mg/kg i.v. with cisplatin 6 mg/kg i.v.", "result": 100, "unit": "%"}, {"measurement": "renal protection (day 5 creatinine and BUN)", "setting": "Fischer rats [7]; BNP7787 1000 mg/kg i.v. with cisplatin 6 mg/kg i.v.", "result": 100, "unit": "%"}, {"measurement": "dose-response effect in renal protection", "setting": "Fischer rats [7]; escalating i.v. doses up to 1000 mg/kg with cisplatin 6 mg/kg", "result": "clear dose-response effect"}, {"measurement": "mean day 5 WBC", "setting": "Fischer rats [8]; [10]", "result": "~4,500"}, {"measurement": "reduction in day 5 mean WBC from the untreated control group", "setting": "Fischer rats [8]; [10]", "result": 36, "unit": "%"}, {"measurement": "mean day 5 WBC", "setting": "Fischer rats [8]; [11]", "result": "approximately 6,800"}, {"measurement": "deviation of mean WBC from untreated controls", "setting": "Fischer rats [8]; [11]", "result": "≤ 15", "unit": "%"}, {"measurement": "mean day 5 WBC", "setting": "Fischer rats [8]; [12]", "result": "~6,200"}, {"measurement": "deviation of mean WBC from untreated controls", "setting": "Fischer rats [8]; [12]", "result": "≤ 15", "unit": "%"}, {"measurement": "protective effect against cisplatin induced myelosuppression (WBC)", "setting": "Fischer rats [8]; escalating BNP7787 doses with cisplatin 6 mg/kg", "result": "dose-dependent protective effect"}, {"measurement": "potentiation of cisplatin antitumor activity", "setting": "WARD colon cancer; BNP7787 1000 mg/kg i.v. with cisplatin 6 mg/kg or 9 mg/kg", "result": "potentiation of cisplatin antitumor activity"}, {"measurement": "intrinsic antitumor activity", "setting": "WARD colon cancer; BNP7787 without cisplatin", "result": "lacks intrinsic antitumor activity"}, {"measurement": "median tumor weight at maximum reduction (from 3,000 mg)", "setting": "WARD colon cancer; cisplatin 6 mg/kg immediately followed by BNP7787 1,000 mg/kg i.v.", "result": "less than 300 mg"}, {"measurement": "median tumor weight at maximum reduction (from 3,000 mg)", "setting": "WARD colon cancer; cisplatin 9 mg/kg immediately followed by BNP7787 1,000 mg/kg i.v.", "result": "< 100", "unit": "mg"}, {"measurement": "effect on antitumor activity of cisplatin (abrogation)", "setting": "WARD colon cancer; substantially contemporaneous administration with cisplatin", "result": "does not abrogate the antitumor activity of cisplatin"}]}
{"smiles": "N.N.[Cl][Pt][Cl]", "note": "[cisplatin, cis-diammine dichloro platinum, reference compound]", "values": [{"measurement": "loss of body weight", "setting": "[6]; cisplatin alone, 6 mg/kg and 9 mg/kg, at 6 days", "result": "up to 8%"}, {"measurement": "mean day 5 WBC", "setting": "Fischer rats [8]; cisplatin only 6 mg/kg", "result": "approximately 4,800"}, {"measurement": "reduction in day 5 mean WBC from the untreated control group", "setting": "Fischer rats [8]; cisplatin only 6 mg/kg", "result": 32, "unit": "%"}, {"measurement": "median tumor weight at maximum reduction (from 3,000 mg)", "setting": "WARD colon cancer; cisplatin only 6 mg/kg i.v.", "result": 700, "unit": "mg"}, {"measurement": "median tumor weight at maximum reduction (from 3,000 mg)", "setting": "WARD colon cancer; cisplatin only 9 mg/kg i.v.", "result": 500, "unit": "mg"}]}
{"smiles": "O=S(O)(O)=S", "note": "[thiosulfates, sodium thiosulfate]", "values": [{"measurement": "increase of cisplatin dose per meter square that could be administered intraperitoneally", "setting": "cancer patients; thiosulfates by intravenous infusion", "result": "more than two fold"}, {"measurement": "renal toxicity of intraperitoneal cisplatin", "setting": "cancer patients; thiosulfates by the intravenous route", "result": "renal toxicity could be prevented"}]}
